Measured values: US11931431B2, “PSMA-targeted radiopharmaceutical for diagnosing and treating prostate cancer” (FUTURECHEM CO., LTD, priority 2018, dated 2024)

Legend:
PSMA^+ PC-3 PIP tumors = assay: MicroPET/CT imaging of mice transplanted with prostate cancer cell lines; type: in vivo, nude mouse
Procedure: A tumor model was prepared by subcutaneously injecting PSMA^+ PC-3 PIP cells (a human prostate cancer cell line) to the right side of the nude mouse hind leg. Each of the ^68Ga-labeled compounds [^68Ga]1e, [^68Ga]1g, [^68Ga]1h and [^68Ga]1k was intravenously injected with 5.5 to 6.5 MBq (148-175 μCi/200 μL), and PET/CT images were obtained using small animal INVEON PET/CT (Siemens medical solutions, Knoxville, USA) for 60 minutes. After 150 minutes, 270 minutes, and 390 minutes, PET/CT images were also obtained for 30 minutes. The obtained PET/CT image results were quantitatively analyzed using Inveon™ Research Workplace (IRW).
FIGS. 1, 2, 3, and 4 are graphs showing the quantitative analysis results of MicorPET/CT images for [^68Ga]1e, [^68Ga]1g, [^68Ga]1h, and [^68Ga]1k in % injected dose (ID)/g, and summarized in Tables 3, 4, 5, and 6, respectively.

[1] = Measurement of lipophilicity (log P), n-octanol/PBS; type: physicochemical; settings: mean of 3
Procedure: Each of the [^68Ga]1 compounds (1˜2 mci) synthesized in Example 14 was transferred into a vial, and the solvent was removed, to which 1 mL of n-octanol and 1 mL of PBS were added, and the lid was well closed, followed by mixing with a vortex for 1 minute. After the layers were separated, 0.1 mL was taken from each layer and the radiation dose was measured. The radiation dose was measured by repeating 3 times, and the mean value was obtained.

O=C(O)CCC(NC(=O)NC(CCCCN(CC(=O)O)C(=O)COCCOCCNC(=O)C(CCCCNC(=O)CCCc1ccc(I)cc1)NC(=O)CN1CCN2CCN3CCN(CC1)CC(=O)[O][68Ga]([O]C(=O)C2)[O]C(=O)C3)C(=O)O)C(=O)O (centres unmarked) [[^68Ga]1h]
intake of mouse organ: Bladder (PSMA^+ PC-3 PIP tumors; 10 min after injection): 2.12 ± 0.39 % ID/g | intake of mouse organ: Heart (PSMA^+ PC-3 PIP tumors; 10 min after injection): 24.69 ± 0.20 % ID/g | intake of mouse organ: Kidney (PSMA^+ PC-3 PIP tumors; 10 min after injection): 13.26 ± 2.36 % ID/g | intake of mouse organ: Liver (PSMA^+ PC-3 PIP tumors; 10 min after injection): 14.96 ± 0.03 % ID/g | intake of mouse organ: Muscle (PSMA^+ PC-3 PIP tumors; 10 min after injection): 2.24 ± 0.15 % ID/g | intake of mouse organ: Tumor (PIP) (PSMA^+ PC-3 PIP tumors; 10 min after injection): 1.94 ± 0.35 % ID/g | intake of mouse organ: Bladder (PSMA^+ PC-3 PIP tumors; 20 min after injection): 2.91 ± 0.69 % ID/g | intake of mouse organ: Heart (PSMA^+ PC-3 PIP tumors; 20 min after injection): 21.30 ± 0.11 % ID/g | intake of mouse organ: Kidney (PSMA^+ PC-3 PIP tumors; 20 min after injection): 12.56 ± 0.86 % ID/g | intake of mouse organ: Liver (PSMA^+ PC-3 PIP tumors; 20 min after injection): 12.71 ± 0.03 % ID/g | intake of mouse organ: Muscle (PSMA^+ PC-3 PIP tumors; 20 min after injection): 2.97 ± 0.35 % ID/g | intake of mouse organ: Tumor (PIP) (PSMA^+ PC-3 PIP tumors; 20 min after injection): 3.74 ± 0.97 % ID/g | intake of mouse organ: Bladder (PSMA^+ PC-3 PIP tumors; 30 min after injection): 3.14 ± 0.51 % ID/g | intake of mouse organ: Heart (PSMA^+ PC-3 PIP tumors; 30 min after injection): 17.38 ± 0.04 % ID/g | intake of mouse organ: Kidney (PSMA^+ PC-3 PIP tumors; 30 min after injection): 12.61 ± 0.71 % ID/g | intake of mouse organ: Liver (PSMA^+ PC-3 PIP tumors; 30 min after injection): 10.37 ± 0.12 % ID/g | intake of mouse organ: Muscle (PSMA^+ PC-3 PIP tumors; 30 min after injection): 2.98 ± 0.34 % ID/g | intake of mouse organ: Tumor (PIP) (PSMA^+ PC-3 PIP tumors; 30 min after injection): 5.00 ± 1.41 % ID/g | intake of mouse organ: Bladder (PSMA^+ PC-3 PIP tumors; 40 min after injection): 4.52 ± 0.97 % ID/g | intake of mouse organ: Heart (PSMA^+ PC-3 PIP tumors; 40 min after injection): 15.25 ± 0.15 % ID/g | intake of mouse organ: Kidney (PSMA^+ PC-3 PIP tumors; 40 min after injection): 13.51 ± 0.46 % ID/g | intake of mouse organ: Liver (PSMA^+ PC-3 PIP tumors; 40 min after injection): 8.86 ± 0.35 % ID/g | intake of mouse organ: Muscle (PSMA^+ PC-3 PIP tumors; 40 min after injection): 3.28 ± 0.23 % ID/g | intake of mouse organ: Tumor (PIP) (PSMA^+ PC-3 PIP tumors; 40 min after injection): 6.22 ± 1.75 % ID/g | intake of mouse organ: Bladder (PSMA^+ PC-3 PIP tumors; 50 min after injection): 8.26 ± 4.41 % ID/g | intake of mouse organ: Heart (PSMA^+ PC-3 PIP tumors; 50 min after injection): 13.52 ± 0.55 % ID/g | intake of mouse organ: Kidney (PSMA^+ PC-3 PIP tumors; 50 min after injection): 13.44 ± 0.71 % ID/g | intake of mouse organ: Liver (PSMA^+ PC-3 PIP tumors; 50 min after injection): 7.83 ± 0.45 % ID/g | intake of mouse organ: Muscle (PSMA^+ PC-3 PIP tumors; 50 min after injection): 3.25 ± 0.36 % ID/g | intake of mouse organ: Tumor (PIP) (PSMA^+ PC-3 PIP tumors; 50 min after injection): 7.12 ± 2.07 % ID/g | intake of mouse organ: Bladder (PSMA^+ PC-3 PIP tumors; 60 min after injection): 12.62 ± 5.31 % ID/g | intake of mouse organ: Heart (PSMA^+ PC-3 PIP tumors; 60 min after injection): 12.14 ± 0.91 % ID/g | intake of mouse organ: Kidney (PSMA^+ PC-3 PIP tumors; 60 min after injection): 13.60 ± 1.72 % ID/g | intake of mouse organ: Liver (PSMA^+ PC-3 PIP tumors; 60 min after injection): 7.19 ± 0.49 % ID/g | intake of mouse organ: Muscle (PSMA^+ PC-3 PIP tumors; 60 min after injection): 3.14 ± 0.20 % ID/g | intake of mouse organ: Tumor (PIP) (PSMA^+ PC-3 PIP tumors; 60 min after injection): 7.90 ± 2.46 % ID/g | intake of mouse organ: Bladder (PSMA^+ PC-3 PIP tumors; 150 min after injection): 19.45 ± 12.23 % ID/g | intake of mouse organ: Heart (PSMA^+ PC-3 PIP tumors; 150 min after injection): 5.55 ± 2.19 % ID/g | intake of mouse organ: Kidney (PSMA^+ PC-3 PIP tumors; 150 min after injection): 6.40 ± 1.41 % ID/g | intake of mouse organ: Liver (PSMA^+ PC-3 PIP tumors; 150 min after injection): 2.80 ± 0.99 % ID/g | intake of mouse organ: Muscle (PSMA^+ PC-3 PIP tumors; 150 min after injection): 1.70 ± 0.57 % ID/g | intake of mouse organ: Tumor (PIP) (PSMA^+ PC-3 PIP tumors; 150 min after injection): 9.90 ± 4.53 % ID/g | intake of mouse organ: Bladder (PSMA^+ PC-3 PIP tumors; 270 min after injection): 15.90 ± 4.53 % ID/g | intake of mouse organ: Heart (PSMA^+ PC-3 PIP tumors; 270 min after injection): 5.75 ± 0.21 % ID/g | intake of mouse organ: Kidney (PSMA^+ PC-3 PIP tumors; 270 min after injection): 7.45 ± 1.63 % ID/g | intake of mouse organ: Liver (PSMA^+ PC-3 PIP tumors; 270 min after injection): 3.00 ± 0.28 % ID/g | intake of mouse organ: Muscle (PSMA^+ PC-3 PIP tumors; 270 min after injection): 1.70 ± 0.14 % ID/g | intake of mouse organ: Tumor (PIP) (PSMA^+ PC-3 PIP tumors; 270 min after injection): 14.20 ± 0.00 % ID/g | intake of mouse organ: Bladder (PSMA^+ PC-3 PIP tumors; 390 min after injection): 22.80 ± 9.90 % ID/g | intake of mouse organ: Heart (PSMA^+ PC-3 PIP tumors; 390 min after injection): 3.90 ± 0.42 % ID/g | intake of mouse organ: Kidney (PSMA^+ PC-3 PIP tumors; 390 min after injection): 5.85 ± 0.92 % ID/g | intake of mouse organ: Liver (PSMA^+ PC-3 PIP tumors; 390 min after injection): 2.35 ± 0.07 % ID/g | intake of mouse organ: Muscle (PSMA^+ PC-3 PIP tumors; 390 min after injection): 1.30 ± 0.14 % ID/g | intake of mouse organ: Tumor (PIP) (PSMA^+ PC-3 PIP tumors; 390 min after injection): 16.75±0.92 % ID/g | excretion, in words (PSMA^+ PC-3 PIP tumors; MicroPET/CT): rapidly excreted out of the body | residence time in the blood, in words (PSMA^+ PC-3 PIP tumors; MicroPET/CT): residence time in the blood was increased | tumor intake over time, in words (PSMA^+ PC-3 PIP tumors; MicroPET/CT): tumor intake continued to increase after 390 minutes | logP [1]: −1.89

O=C(O)CC[C@H](NC(=O)N[C@@H](CCC(=O)N(CCOCCOCCNC(=O)CN1CCN2CCN3CCN(CC1)CC(=O)[O][68Ga]([O]C(=O)C2)[O]C(=O)C3)CC(=O)O)C(=O)O)C(=O)O [[^68Ga]1n]
logP [1]: −3.06
